Experimental data: patent publication US10682371B2, “Small molecule conjugates specifically activated in tumor microenvironment for targeting and use thereof” (priority 2014, dated 2020)

Legend:
[1] = system: Human renal cancer OS-RC-2; experiment: Multiple tumor models in nude mice: OS-RC-2; assay type: in vivo
Experimental: (§1) 1) Corresponding tumor cells were purchased from American type culture collection (ATCC) and identified according the specification provided by ATCC. Cells were cultivated in DMEM culture solution containing 10% fetal bovine serum at 37° C. and 5% CO2. The cells were passaged for every three days and cells within the 15th passage were used.
(§2) 2) Production of tumor. 5×10^6 corresponding cells were subcutaneously injected to the back of the nude mice. Mice were randomly grouped after the tumor reached at least 100 mm^3. Then treatment began and the day on which the treatment began was day 1.
(§3) 3) Course of treatment. […] The control group was administered by physiological saline. Animals were administered once weekly for three weeks.
(§4) 3) Course of treatment. According to the clinical application of A1, A1 was administered in a dose of ⅙ MTD, i.v., 17.6 μmol/kg. The control group was administered by physiological saline. Animals were administered once weekly for three weeks.
(§5) 3) Course of treatment. According to the clinical application of B1, B1 was administered in a dose of ⅙ MTD, i.v., 17.6 μmol/kg. The control group was administered by physiological saline. Animals were administered once weekly for three weeks.
as §3, §3

[2] = system: scar and choroidal neovascularization (CNV); experiment: Inhibition of scar and choroidal neovascularization (CNV) by eye drops after laser photocoagulation; assay type: in vivo, C57 mice
Experimental: Animal: C57 mice of 16 weeks old, all female and 8 animals in each group.
(§6) Production and treatment of scar. […] Two weeks later, eye tissues were taken from 4 animals of each group for immunohistochemical (HE) staining. For another 4 animals, they were subjected to fixed irradiation through photocoagulation by 50 mW laser and then to treatment. 48 hours later, their eye tissues were taken, homogenated, filtered to isolate individual cells in the scar and choroidal neovascularization (CNV) tissues. The cells were washed by buffer twice and stained by biotin-conjugated anti-F4/80 (biotin-labeled precursor cell antigen from macrophage) and FITC-conjugated anti-CD45 (isothiocyanate fluorescein labeled leucocyte common antigen) at ambient temperature for 1 hour. Then the cells were washed by PBS containing 1% fetal bovine serum twice and then analyzed for the ratio of the macrophage precursor antigen positive cells in the leucocyte common antigen (CD45) positive cells by flow cytometry.

HT1080 cells = experiment: Tumor treatment in nude mice, HT1080 model (Example 61); assay type: in vivo
Experimental: as §1, with “HT1080” for “Corresponding tumor”
2) Production of tumor. 5×10^6 HT1080 cells were subcutaneously injected to the back of the nude mice. Mice were randomly grouped after the tumor reached at least 100 mm^3. Then treatment began and the day on which the treatment began was day 1.
(§7) […]. The control group was administered by physiological saline. Drugs were administered once weekly for four weeks.

[3] = system: Human pancreatic cancer Panc-1; experiment: Multiple tumor models in nude mice: Panc-1; assay type: in vivo
Experimental: as §1, §2, §3, §4, §5, §3, §3

Human colon cancer HT-29 = experiment: Multiple tumor models in nude mice: HT-29; assay type: in vivo
Experimental: as §1, §2, §3, §4, §5, §3, §3

macrophage = experiment: Macrophage precursor antigen (F4/80) positive cells in CD45 positive cells of scar/CNV tissue, flow cytometry; assay type: in vivo, C57 mice; settings: 50 mW laser, 48 hours after treatment
Experimental: as §6

Panc-1 cells = experiment: Tumor treatment in nude mice, Panc-1 model (Example 60); assay type: in vivo
Experimental: as §1, with “Panc-1” for “Corresponding tumor”
2) Production of tumor. 5×10^6Panc-1 cells were subcutaneously injected to the back of the nude mice. Mice were randomly grouped after the tumor reached at least 100 mm^3. Then treatment began and the day on which the treatment began was day 1.
as §7

[4] = system: Human chronic leukemia K562; experiment: Multiple tumor models in nude mice: K562; assay type: in vivo
Experimental: as §1, §2, §3, §4, §5, §3, §3

MDA-MB231 tumor tissue = experiment: Activation efficiency by MDA-MB231 tumor tissue (HPLC); assay type: biochemical
Experimental: At 37 °C, sample compounds were added into 100 μg acidized tumor tissue homogenates in a concentration of 1 mg/ml.
In the experiments, at 37 °C, compounds were added into proteases in 100 μg acidized tumor tissue homogenates in a concentration of 1 mg/ml. […] Meanwhile certain compounds produced in the screening were compared and their activation efficiency in same tissue was analyzed.

[5] = 15 mg/kg once weekly for three weeks, Day 26
[6] = Day 13, HT1080 in nude mice, IV once weekly for four weeks, E1-E4 15 mg/kg, mitomycin 2 mg/kg
[7] = Day 26, HT1080 in nude mice, IV once weekly for four weeks, E1-E4 15 mg/kg, mitomycin 2 mg/kg
[8] = Day 10, Panc-1 in nude mice, IV once weekly for four weeks, E1-E4 15 mg/kg, mitomycin 2 mg/kg
[9] = Day 24, Panc-1 in nude mice, IV once weekly for four weeks, E1-E4 15 mg/kg, mitomycin 2 mg/kg
[10] = Table 51, 25 mg/kg once weekly for three weeks
[11] = Table 41, i.v. 17.6 μmol/kg once weekly for three weeks

## COCCOCC(=O)N[C@H](C)C(=O)N[C@H](C)C(=O)N[C@H](CC(N)=O)C(=O)Nc1ccc(COC(=O)N2[C@@H]3CN4C5=C(C(=O)C(N)=C(C)C5=O)[C@H](COC(N)=O)[C@]4(OC)[C@@H]32)cc1 [Compound E1, 2-(2-methoxyethoxy) acetyl-L-Ala-L-Ala-L-Asn-4-amino benzyl mitomycin]
[1]; [5]
  inhibitory rate on tumor (Day 26): 81.3%
[2]; 150 mW laser photocoagulation, eye drops daily, two weeks, C57 mice
  Maximal scar radius observed by pathological staining (pixel): 332 ± 124 pixel
[2]; eye drops, compared to the control group and the mitomycin group
  Treatment effect on scar radius and inhibition of macrophage, in words: greatly improved treatment effect on scar radius and inhibition of macrophage
HT1080 cells; [6]
  Size of tumor (mm^3) Day 13: 438.15 ± 47.96 mm^3
  inhibitory rate on tumor Day 13: 51.9%
HT1080 cells; [7]
  Size of tumor (mm^3) Day 26: 331.57 ± 114.74 mm^3
  inhibitory rate on tumor (Day 26): 78.9%
HT1080 cells; HT1080, compared with mitomycin group and control group
  Inhibition on tumor growth, in words: greatly improved
[3]; [5]
  inhibitory rate on tumor (Day 26): 86.5%
Human colon cancer HT-29; [5]
  inhibitory rate on tumor (Day 26): 86.7%
macrophage
  F4/80+ cells among CD45+ cells (%): 7.1 ± 1.4%
Panc-1 cells; [8]
  Size of tumor (mm^3) Day 10: 76.42 ± 14.96 mm^3
  inhibitory rate on tumor Day 10: 35.7%
Panc-1 cells; [9]
  Size of tumor (mm^3) Day 24: 84.62 ± 45.94 mm^3
  inhibitory rate on tumor Day 24: 66.1%
Panc-1 cells; Panc-1, compared with mitomycin group and control group
  Inhibition on tumor growth, in words: greatly improved
[4]; [5]
  inhibitory rate on tumor (Day 26): 77.3%

## COCCOCC(=O)N[C@H](C)C(=O)N[C@H](C)C(=O)N[C@H](CC(N)=O)C(=O)Nc1ccc(COC(=O)OC(C(=O)OC2C[C@@]3(O)[C@@H](OC(=O)c4ccccc4)[C@H]4[C@](C)(C(=O)[C@H](O)C(=C2C)C3(C)C)[C@@H](O)CC2OC[C@]24OC(C)=O)[C@@H](NC(=O)OC(C)(C)C)c2ccccc2)cc1 (stereo partly drawn) [Compound D1, 2-(2-methoxyethoxy) acetyl-L-Ala-L-Ala-L-Asn-4-amino benzyl-Docetaxel]
[1]; [10]
  inhibitory rate on tumor (Day 26): 87.7%
[3]; [10]
  inhibitory rate on tumor (Day 26): 89.4%
Human colon cancer HT-29; [10]
  inhibitory rate on tumor (Day 26): 68.6%
MDA-MB231 tumor tissue; Table 46, Docetaxel D series and controls
  activation efficiency (%): 91.5%
[4]; [10]
  inhibitory rate on tumor (Day 26): 84.6%

## COCCOCC(=O)NCCCC[C@H](NC(=O)COCCOC)C(=O)N[C@H](C)C(=O)N[C@H](C)C(=O)N[C@H](CC(N)=O)C(=O)Nc1ccc(COC(=O)OC(C(=O)OC2C[C@@]3(O)[C@@H](OC(=O)c4ccccc4)[C@H]4[C@](C)(C(=O)[C@H](O)C(=C2C)C3(C)C)[C@@H](O)CC2OC[C@]24OC(C)=O)[C@@H](NC(=O)OC(C)(C)C)c2ccccc2)cc1 (stereo partly drawn) [Compound B1]
[1]; [11]
  inhibitory rate on tumor (Day 26): 86.67%
[3]; [11]
  inhibitory rate on tumor (Day 26): 73.56%
Human colon cancer HT-29; [11]
  inhibitory rate on tumor (Day 26): 74.56%
MDA-MB231 tumor tissue; Table 35, water-soluble Docetaxel series and controls
  activation efficiency (%): 93.4%
[4]; [11]
  inhibitory rate on tumor (Day 26): 72.56%
